# Results as given in patent US4088772A, “Methanodibenzocycloheptapyrroles” (E. I. Du Pont de Nemours and Company, priority 1975, dated 1978).
# Counter-ions that a name gives are not always drawn. Like-named read-outs stand apart in the source and are kept apart here.
# Experiments:
# female white mice = assay: animal or person; conditions: Mus musculus, po, oral, mice
# Protocol: (§1) Groups of five Carworth CF1 S female mice, 16-20 g each, were fasted 16-22 hours before use. The mice were put in opaque plastic "shoe-box" cages 15-30 min. before injection, and then treated orally with 4, 12, 36, 108 and 324 mg/kg of the compound to be tested as a 13 mg/ml solution in 1% aqueous distilled water solution of methylcellulose (Methocel®). Each dose was given in a standard volume of 0.45 ml. Observations were made at 0.5, 2 and 24 hours after dosing. ED50 values were calculated for each parameter including death (LD50). The ED50 and LD50 values are the doses at which 50% of the naimals would be expected to respond.
# (§2) The mouse is placed on a stainless steel wire mesh screen (8 × 12 inches, 3 mesh per inch, 1/4 inch mesh openings) "shoe-box" lid (1 inch high) and is observed for normal activities, such as nose movements, head movements with apparent visual examination of the area, and/or walking around on the screen. Absence of or marked depression of these activities for 5 seconds constitutes loss of exploratory activity.
# (§3) The mouse is picked up by the tail and placed on the screen with its head facing the observer. Bilateral eyelid closure of 50% or more two seconds after placement is considered ptosis.
# (§4) The mouse is placed with its front paws on the edge of a stainless steel "shoe-box" cover, 1 inch high, covered with adhesive tape. Failure to remove both paws from the cover's edge within 5 seconds constitutes catatonia.
# (§5) The observer gently strokes the abdominal musculature of the mouse with thumb and forefinger. Flaccidity (or rarely, tenseness) is recorded.
# (§6) The mouse is gently swung by the tail toward a horizontal 12 gauge wire tautly stretched 25 cm above the bench. After the mouse grasps the wire with its forepaws, its posterior end is held directly below the wire. A normal mouse grasps the wire with its forepaws and immediately lifts its hind limbs to the wire. Failure to grasp the wire with the forepaws in both trials constitutes loss of the grip reflex; failure to lift the hind limbs to grasp the wire with at least one hind paw within 5 seconds constitutes loss of the lift reflex.
# (§7) The mouse is placed on the bar 10-20 cm horizontally and 9 cm vertically from a Galton whistle adjusted for 13 kc (5 mm on the whistle scale) and is subjected to several short bursts of sound.
# (§8) An effective tranquilizer should induce little or no tremor response. […] Tremors include fine or coarse and intermittent or continuous tremors.
# in vivo = conditions: mouse, in vivo, po
# Protocol: as §1, §2, §3, §4, §5, §6, §7, §8
# [1] = tested on: phenylquinone-induced writhing; assay: Phenylquinone writhing test (analgesia); format: in vivo, mouse (Carworth CF1 S female); conditions: Mus musculus, po
# Excerpt: This mouse test is predictive of analgesic response in humans. [E. Siegmund, R. Cadmus and G. Lee, Proc. Soc.
# ED50 values were obtained graphically from the data.
# [2] = read-out: Catatonia ED50, Table 1
# [3] = read-out: Exploratory Loss Visual ED50, Table 1
# [4] = read-out: Muscle Tone ED50, Table 1
# [5] = read-out: Reflexes Grip ED50, Table 1
# [6] = read-out: Reflexes Lift ED50, Table 1
# [7] = read-out: Reflexes Pinna ED50, Table 1
# [8] = read-out: Catatonia ED50, Table III
# [9] = read-out: Exploratory Loss Visual ED50, Table III
# [10] = read-out: Muscle Tone ED50, Table III
# [11] = read-out: Ptosis ED50, Table III
# [12] = read-out: Reflexes Grip ED50, Table III
# [13] = read-out: Reflexes Lift ED50, Table III
# [14] = read-out: Reflexes Pinna ED50, Table III
SMILES,ED50 (female white mice; [2]),ED50 (female white mice; [3]),ED50 (female white mice; [4]),"ED50 (female white mice; read-out: Ptosis ED50, Table 1)",ED50 (female white mice; [5]),ED50 (female white mice; [6]),ED50 (female white mice; [7]),ED50 (in vivo),LD50 at 24 h (in vivo),"ED50 ([1]; Table 1, mice)",ED50 (female white mice; [8]),ED50 (female white mice; [9]),ED50 (female white mice; [10]),ED50 (female white mice; [11]),ED50 (female white mice; [12]),ED50 (female white mice; [13]),ED50 (female white mice; [14]),"ED50 ([1]; Table III, mice)"
"C1=CC(CCN2CC3c4ccccc4C4CC3(C2)c2ccccc24)CC1 (centres unmarked) [Example 23, 2-(2-Cyclopent-2-enylethyl)-2,3,8,12b-tetrahydro-1H-3a,8-methanodibenzo[3,4:6,7]cyclohepta[1,2-c]pyrrole]",37 mg/kg,57 mg/kg,37 mg/kg,46 mg/kg,265 mg/kg,88 mg/kg,62 mg/kg,> 324 mg/kg,> 324 mg/kg,15 mg/kg,,,,,,,,
"C=CCC(O)c1ccc2c(c1)[C@]13C[C@H]2c2ccccc2[C@H]1CN(CC1CCCC1)C3 (some centres unmarked) [Example 75, 5-[1-(1-Hydroxy-3-butenyl)]-2-cyclopentylmethyl-2,3,8,12b-tetrahydro-1H-3a,8-methanodibenzo[3,4:6,7]cyclohepta[1,2-c]pyrrole Hydrochloride]",,,,,,,,,> 324 mg/kg,,36 mg/kg,60 mg/kg,36 mg/kg,12 mg/kg,200 mg/kg,20 mg/kg,7 mg/kg,11 mg/kg
"c1ccc(CCCCN2C[C@@H]3c4ccccc4[C@@H]4C[C@@]3(C2)c2ccccc24)cc1 (relative stereo) [Example 61, 2-(4-Phenylbutyl)-2,3,8,12b-tetrahydro-1H-3a,8-methanodibenzo[3,4:6,7]cyclohepta[1,2-c]pyrrole]",20 mg/kg,20 mg/kg,20 mg/kg,36 mg/kg,> 324 mg/kg,60 mg/kg,36 mg/kg,,> 324 mg/kg,5.6 mg/kg,,,,,,,,
"c1ccc2c(c1)C1CC3(CN(CCCCC4CCCCC4)CC23)c2ccccc21 (centres unmarked) [Example 31, 2-(4-Cyclohexylbutyl)-2,3,8,12b-tetrahydro-1H-3a,8-methanodibenzo[3,4:6,7]cyclohepta[1,2-c]pyrrole]",26 mg/kg,21 mg/kg,24 mg/kg,17 mg/kg,> 324 mg/kg,37 mg/kg,32 mg/kg,> 324 mg/kg,> 324 mg/kg,14 mg/kg,,,,,,,,
"c1coc(CN2C[C@@H]3c4ccccc4[C@@H]4C[C@@]3(C2)c2ccccc24)c1 (relative stereo) [Example 42, 2-(2-Furylmethyl)-2,3,8,12b-tetrahydro-1H-3a,8-methanodibenzo[3,4:6,7]cyclohepta[1,2-c]pyrrole]",36 mg/kg,60 mg/kg,20 mg/kg,20 mg/kg,> 324 mg/kg,200 mg/kg,60 mg/kg,> 324 mg/kg,300 mg/kg,26 mg/kg,,,,,,,,
"CN1CC2c3cc(Cl)ccc3C3CC2(C1)c1ccccc13.Cl (centres unmarked) [Example 80, 11-Chloro-2-methyl-2,3,8,12b-tetrahydro-1H-3a,8-methanodibenzo[3,4:6,7]cyclohepta[1,2-c]pyrrole Hydrochloride]",,,,,,,,,200 mg/kg,,100 mg/kg,7 mg/kg,20 mg/kg,20 mg/kg,60 mg/kg,20 mg/kg,20 mg/kg,
C[N+]1([O-])C[C@@H]2c3ccccc3[C@@H]3C[C@@]2(C1)c1ccccc13 (relative stereo) [Methyl-N-oxide],60 mg/kg,60 mg/kg,100 mg/kg,36 mg/kg,200 mg/kg,36 mg/kg,60 mg/kg,36 mg/kg,> 324 mg/kg,,,,,,,,,
